{"source": "patent US9062061B2", "about": "“Compound having PARP inhibitory activity” (SANTEN PHARMACEUTICAL CO., LTD., priority 2011, dated 2015)"}
{"target": "T1, human recombinant PARP1 (Homo sapiens, UniProt P09874)", "T1 construct": "purchased Trevigen 4677-096-K", "T1 sequence (P09874 whole entry)": "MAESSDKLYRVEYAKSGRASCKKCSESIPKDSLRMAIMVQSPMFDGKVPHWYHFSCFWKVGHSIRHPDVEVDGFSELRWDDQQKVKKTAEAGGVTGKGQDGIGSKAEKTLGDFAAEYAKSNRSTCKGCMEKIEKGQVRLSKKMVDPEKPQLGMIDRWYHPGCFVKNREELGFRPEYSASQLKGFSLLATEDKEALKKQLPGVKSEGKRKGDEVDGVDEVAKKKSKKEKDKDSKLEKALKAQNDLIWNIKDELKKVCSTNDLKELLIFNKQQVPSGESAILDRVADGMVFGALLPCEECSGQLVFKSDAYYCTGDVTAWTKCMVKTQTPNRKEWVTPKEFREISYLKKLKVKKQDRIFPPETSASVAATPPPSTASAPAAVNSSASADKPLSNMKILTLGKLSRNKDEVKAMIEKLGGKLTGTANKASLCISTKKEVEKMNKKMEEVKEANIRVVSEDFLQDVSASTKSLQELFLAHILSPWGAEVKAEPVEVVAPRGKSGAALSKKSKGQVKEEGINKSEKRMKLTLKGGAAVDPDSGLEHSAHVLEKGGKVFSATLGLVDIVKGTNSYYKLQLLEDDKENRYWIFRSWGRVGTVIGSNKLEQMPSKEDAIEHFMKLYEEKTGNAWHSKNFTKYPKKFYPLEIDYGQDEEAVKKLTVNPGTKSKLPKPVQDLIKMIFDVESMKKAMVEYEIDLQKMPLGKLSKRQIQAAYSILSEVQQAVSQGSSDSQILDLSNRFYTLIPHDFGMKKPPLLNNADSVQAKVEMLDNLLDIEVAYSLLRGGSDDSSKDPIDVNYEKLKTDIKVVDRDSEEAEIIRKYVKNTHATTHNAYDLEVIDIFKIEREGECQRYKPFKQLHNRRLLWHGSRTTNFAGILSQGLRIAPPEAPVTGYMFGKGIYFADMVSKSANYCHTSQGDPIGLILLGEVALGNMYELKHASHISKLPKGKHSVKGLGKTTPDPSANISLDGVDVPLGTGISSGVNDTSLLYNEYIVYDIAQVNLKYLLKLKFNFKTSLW", "assay": "PARP inhibitory activity measurement test (Universal Colorimetric PARP Assay kit, Trevigen)", "type": "biochemical", "settings": "compound concentration: 10 μM, read-out: PARP1 inhibition rate (%)", "procedure": "For evaluating PARP inhibitory activity of the present compound, inhibitory activity of each test compound against human recombinant PARP 1 was measured using Universal Colorimetric PARP Assay kit with Histone-Coated Strip Wells (Cat No.: 4677-096-K) available from Trevigen. The test was conducted according to the procedure in the instruction attached to this kit. The concrete operation will be described below.\nAfter dissolving the test compound in dimethyl sulfoxide, the solution was diluted with a PARP buffer attached to the kit to prepare a 50 μM test compound solution.\nIn each well of a histone-coated 96-well plate, 10 μL of the test compound solution (50 μM), 15 μL of human recombinant PARP1 (33.3 Unit/mL) and 25 μL of PARP cocktail (containing activated DNA and biotinated NAD) were added, and incubated at room temperature for 1 hour (final reaction amount: 50 μL). Each well was washed twice with 200 μL of 0.1% Triton-X-containing Dulbecco's phosphate buffer, and further washed twice with 200 μL of Dulbecco's phosphate buffer, and then 50 μL of Strep-HRP was added, followed by incubation at room temperature for 1 hour. Each well was washed twice with 200 μL of 0.1% Triton-X-containing Dulbecco's phosphate buffer, and further washed twice with 200 μL of Dulbecco's phosphate buffer, and then 50 μL of TACS-Sapphire coloriometric substrate was added, followed by incubation at room temperature for 15 minutes. After stopping the reaction by adding 50 μL of 0.2 M HCl, absorbance at 450 nm (Abs 450) was measured by a microplate reader. The number of examples in each group was 1 to 2.\nUsing a well into which dimethyl sulfoxide and a PARP buffer were added in place of the test compound solution and human recombinant PARP1, the above operation was conducted as a negative control.\nUsing a well into which a PARP buffer containing dimethyl sulfoxide was added in place of the test compound solution, the above operation was conducted as a positive control.\nPARP1 inhibition rate (%) was calculated according to the following Formula 1. PARP1 inhibition rate(%)=(AbsB−AbsX)/(AbsB−AbsA)×100 [Formula 1]\nAbsA: absorbance of negative control (Abs 450)\nAbsB: absorbance of positive control (Abs 450)\nAbsX: absorbance of test compound-treated group (Abs 450)", "units": {"inhibition at 10 µM": "%"}}
{"smiles": "O=C(c1cc2[nH]c(=O)c3ccccc3n2c1)N1CCN(c2ccc(F)cc2)CC1", "note": "[Compound 1-1, 2-[4-(4-Fluorophenyl)piperazine-1-carbonyl]pyrrolo[1,2-a]quinazolin-5(4H)-one]", "inhibition at 10 µM": 90}
{"smiles": "O=C(c1cc2[nH]c(=O)c3ccccc3n2c1)N1CCN(Cc2ccc(Cl)cc2)CC1", "note": "[Compound 1-2, 2-[4-(4-Chlorobenzyl)piperazine-1-carbonyl]pyrrolo[1,2-a]quinazolin-5(4H)-one]", "inhibition at 10 µM": 55}
{"smiles": "O=C(c1cc2[nH]c(=O)c3ccccc3n2c1)N1CCN(c2nccs2)CC1", "note": "[Compound 1-3, 2-[4-(Thiazol-2-yl)piperazine-1-carbonyl]pyrrolo[1,2-a]quinazolin-5(4H)-one]", "inhibition at 10 µM": 100}
{"smiles": "O=C(c1cc2[nH]c(=O)c3ccccc3n2c1)N1CCN(c2ccccc2)CC1", "note": "[Compound 1-4, 2-(4-Phenylpiperazine-1-carbonyl)pyrrolo[1,2-a]quinazolin-5(4H)-one]", "inhibition at 10 µM": 99}
{"smiles": "O=C(c1cc2[nH]c(=O)c3ccccc3n2c1)N1CCC(c2ccccc2)CC1", "note": "[Compound 1-5, 2-(4-Phenylpiperidine-1-carbonyl)pyrrolo[1,2-a]quinazolin-5(4H)-one]", "inhibition at 10 µM": 71}
{"smiles": "O=C(c1cc2[nH]c(=O)c3ccccc3n2c1)N1CC=C(c2ccccc2)CC1", "note": "[Compound 1-6, 2-(4-Phenyl-1,2,3,6-tetrahydropyridine-1-carbonyl)pyrrolo[1,2-a]quinazolin-5(4H)-one]", "inhibition at 10 µM": 23}
{"smiles": "O=C(c1cc2[nH]c(=O)c3ccccc3n2c1)N1CC=C(c2ccc(Cl)cc2)CC1", "note": "[Compound 1-7, 2-[4-(4-Chlorophenyl)-1,2,3,6-tetrahydropyridine-1-carbonyl]pyrrolo[1,2-a]quinazolin-5(4H)-one]", "inhibition at 10 µM": 44}
{"smiles": "O=C(c1cc2[nH]c(=O)c3ccccc3n2c1)N1CC=C(c2ccc(F)cc2)CC1", "note": "[Compound 1-8, 2-[4-(4-Fluorophenyl)-1,2,3,6-tetrahydropyridine-1-carbonyl]pyrrolo[1,2-a]quinazolin-5(4H)-one]", "inhibition at 10 µM": 51}
{"smiles": "CN1CCN(C(=O)c2cc3[nH]c(=O)c4ccccc4n3c2)CC1", "note": "[Compound 1-10, 2-(4-Methylpiperazine-1-carbonyl)pyrrolo[1,2-a]quinazolin-5(4H)-one]", "inhibition at 10 µM": 68}
{"smiles": "O=C(c1cc2[nH]c(=O)c3ccccc3n2c1)N1CCN(Cc2ccccc2)CC1", "note": "[Compound 1-11, 2-(4-Benzylpiperazine-1-carbonyl)pyrrolo[1,2-a]quinazolin-5(4H)-one]", "inhibition at 10 µM": 86}
{"smiles": "O=C(c1cc2[nH]c(=O)c3ccccc3n2c1)N1CCN(c2ccc(Cl)cc2)CC1", "note": "[Compound 1-12, 2-[4-(4-Chlorophenyl)piperazine-1-carbonyl]pyrrolo[1,2-a]quinazolin-5(4H)-one]", "inhibition at 10 µM": 64}
{"smiles": "O=C(c1cc2[nH]c(=O)c3ccccc3n2c1)N1CCN(Cc2ccc(F)cc2)CC1", "note": "[Compound 1-13, 2-[4-(4-Fluorobenzyl)piperazine-1-carbonyl]pyrrolo[1,2-a]quinazolin-5(4H)-one]", "inhibition at 10 µM": 67}
{"smiles": "O=C(c1cc2[nH]c(=O)c3ccccc3n2c1)N1CCC(c2ccc(F)cc2)CC1", "note": "[Compound 1-14, 2-[4-(4-Fluorophenyl)piperidine-1-carbonyl]pyrrolo[1,2-a]quinazolin-5(4H)-one]", "inhibition at 10 µM": 44}
{"smiles": "O=C(c1cc2[nH]c(=O)c3ccccc3n2c1)N1CCN(c2cccc(F)c2)CC1", "note": "[Compound 1-15, 2-[4-(3-Fluorophenyl)piperazine-1-carbonyl]pyrrolo[1,2-a]quinazolin-5(4H)-one]", "inhibition at 10 µM": 74}
{"smiles": "O=C(c1cc2[nH]c(=O)c3ccccc3n2c1)N1CCc2ccccc2C1", "note": "[Compound 1-21, 2-(3,4-Dihydroisoquinoline-2(1H)-carbonyl)pyrrolo[1,2-a]quinazolin-5(4H)-one]", "inhibition at 10 µM": 84}
{"smiles": "CC(C)(C)OC(=O)N1CCCN(C(=O)c2cc3[nH]c(=O)c4ccccc4n3c2)CC1", "note": "[Compound 1-47, 2-[4-(tert-Butoxycarbonyl)homopiperazine-1-carbonyl]pyrrolo[1,2-a]quinazolin-5(4H)-one]", "inhibition at 10 µM": 93}
{"smiles": "O=C(Nc1ccccc1)c1cc2[nH]c(=O)c3ccccc3n2c1", "note": "[Compound 1-49, 2-(Phenylaminocarbonyl)pyrrolo[1,2-a]quinazolin-5(4H)-one]", "inhibition at 10 µM": 36}
{"smiles": "CN1CCCN(C(=O)c2cc3[nH]c(=O)c4ccccc4n3c2)CC1", "note": "[Compound 1-50, 2-(4-Methylhomopiperazine-1-carbonyl)pyrrolo[1,2-a]quinazolin-5(4H)-one]", "inhibition at 10 µM": 92}
{"smiles": "CN(C)CCNC(=O)c1cc2[nH]c(=O)c3ccccc3n2c1", "note": "[Compound 1-51, 2-[(2-Dimethylaminoethyl)aminocarbonyl]pyrrolo[1,2-a]quinazolin-5(4H)-one]", "inhibition at 10 µM": 92}
{"smiles": "O=C(NCc1ccncc1)c1cc2[nH]c(=O)c3ccccc3n2c1", "note": "[Compound 1-52, 2-[(Pyridin-4-ylmethyl)aminocarbonyl]pyrrolo[1,2-a]quinazolin-5(4H)-one]", "inhibition at 10 µM": 94}
{"smiles": "O=C(NCCN1CCOCC1)c1cc2[nH]c(=O)c3ccccc3n2c1", "note": "[Compound 1-53, 2-[2-(Morpholin-4-ylethyl)aminocarbonyl]pyrrolo[1,2-a]quinazolin-5(4H)-one]", "inhibition at 10 µM": 96}
{"smiles": "O=C(NCc1ccccc1)c1cc2[nH]c(=O)c3ccccc3n2c1", "note": "[Compound 1-54, 2-(Benzylaminocarbonyl)pyrrolo[1,2-a]quinazolin-5(4H)-one]", "inhibition at 10 µM": 81}
{"smiles": "O=C(NCCc1ccccc1)c1cc2[nH]c(=O)c3ccccc3n2c1", "note": "[Compound 1-55, 2-(2-Phenylethylaminocarbonyl)pyrrolo[1,2-a]quinazolin-5(4H)-one]", "inhibition at 10 µM": 81}
{"smiles": "O=C(NCCCc1ccccc1)c1cc2[nH]c(=O)c3ccccc3n2c1", "note": "[Compound 1-56, 2-(3-Phenylpropylaminocarbonyl)pyrrolo[1,2-a]quinazolin-5(4H)-one]", "inhibition at 10 µM": 83}
{"smiles": "O=c1[nH]c2cc(CN3CCN(Cc4ccc(Cl)cc4)CC3)cn2c2ccccc12", "note": "[Compound 2-2, 2-[4-(4-Chlorobenzyl)piperazin-1-ylmethyl]pyrrolo[1,2-a]quinazolin-5(4H)-one]", "inhibition at 10 µM": 78}
{"smiles": "O=c1[nH]c2cc(CN3CCN(c4nccs4)CC3)cn2c2ccccc12", "note": "[Compound 2-3, 2-[4-(Thiazol-2-yl)piperazin-1-ylmethyl]pyrrolo[1,2-a]quinazolin-5(4H)-one]", "inhibition at 10 µM": 99}
{"smiles": "O=c1[nH]c2cc(CN3CCN(c4ccccc4)CC3)cn2c2ccccc12", "note": "[Compound 2-4, 2-(4-Phenylpiperazin-1-ylmethyl)pyrrolo[1,2-a]quinazolin-5(4H)-one]", "inhibition at 10 µM": 100}
{"smiles": "O=c1[nH]c2cc(CN3CC=C(c4ccccc4)CC3)cn2c2ccccc12", "note": "[Compound 2-6, 2-(4-Phenyl-1,2,3,6-tetrahydropyridin-1-ylmethyl)pyrrolo[1,2-a]quinazolin-5(4H)-one]", "inhibition at 10 µM": 100}
{"smiles": "CN1CCN(Cc2cc3[nH]c(=O)c4ccccc4n3c2)CC1", "note": "[Compound 2-10, 2-(4-Methylpiperazin-1-ylmethyl)pyrrolo[1,2-a]quinazolin-5(4H)-one]", "inhibition at 10 µM": 98}
{"smiles": "O=c1[nH]c2cc(CN3CCN(Cc4ccccc4)CC3)cn2c2ccccc12", "note": "[Compound 2-11, 2-(4-Benzylpiperazin-1-ylmethyl)pyrrolo[1,2-a]quinazolin-5(4H)-one]", "inhibition at 10 µM": 99}
{"smiles": "O=c1[nH]c2cc(CN3CCN(Cc4ccc(F)cc4)CC3)cn2c2ccccc12", "note": "[Compound 2-13, 2-[4-(4-Fluorobenzyl)piperazin-1-ylmethyl]pyrrolo[1,2-a]quinazolin-5(4H)-one]", "inhibition at 10 µM": 96}
{"smiles": "O=c1[nH]c2cc(CN3CCN(c4cccc(F)c4)CC3)cn2c2ccccc12", "note": "[Compound 2-15, 2-[4-(3-Fluorophenyl)piperazin-1-ylmethyl]pyrrolo[1,2-a]quinazolin-5(4H)-one]", "inhibition at 10 µM": 98}
{"smiles": "O=c1[nH]c2cc(CN3CCN(c4cccnc4)CC3)cn2c2ccccc12", "note": "[Compound 2-18, 2-[4-(Pyridine-3-yl)piperazin-1-ylmethyl]pyrrolo[1,2-a]quinazolin-5(4H)-one]", "inhibition at 10 µM": 95}
{"smiles": "CN(CCCc1ccccc1)Cc1cc2[nH]c(=O)c3ccccc3n2c1", "note": "[Compound 2-19, 2-[N-Methyl-N-(3-phenylpropyl)aminomethyl]pyrrolo[1,2-a]quinazolin-5(4H)-one]", "inhibition at 10 µM": 93}
{"smiles": "O=c1[nH]c2cc(CN3CCN(c4ccc(Br)cc4)CC3)cn2c2ccccc12", "note": "[Compound 2-20, 2-[4-(4-Bromophenyl)piperazin-1-ylmethyl]pyrrolo[1,2-a]quinazolin-5(4H)-one]", "inhibition at 10 µM": 90}
{"smiles": "O=c1[nH]c2cc(CN3CCc4ccccc4C3)cn2c2ccccc12", "note": "[Compound 2-21, 2-(1,2,3,4-Tetrahydroisoquinolin-2(1H)-ylmethyl)pyrrolo[1,2-a]quinazolin-5(4H)-one]", "inhibition at 10 µM": 65}
